One data set relates to U87MG human glioma cells. It counts as cell-based.
For a further data set, the system named is HEK293 cells. Kind of data set: Cell uptake of 18F-Leu-BF3 in HEK293 cells. It counts as cell-based. The following applies: 120 min post incubation.
For the next data set, the system named is UM22B cells. Kind of data set: Efflux of radioactivity from cells preloaded with 18F-Leu-BF3. It counts as cell-based. The following applies: UM22B cells loaded 120 min, 120 min post medium incubation. Here is the method: ^18F-Leu-BF3 was first incubated with UM22B cells in PBS (phosphate buffered saline) for 120 min then was removed, followed by rapidly rinsing the cells with PBS three times. The cancer cells were incubated in medium essential medium for 10, 30, 60, and 120 min, and the residual radioactivity was measured (FIG. 16). The decreasing residual radioactivity is time-dependent, and most of the radioactive boramino acid was excreted from the cell in 90 min (less than 2% left at 120 min post medium incubation).
The radioactivity from efflux was further analyzed by re-injection into HPLC at 120 min (efflux: excreted from cell; influx: accumulated into cell). Only one peak was observed, and the elution time was corroborative to that for ^18F-Leu-BF3. The elution time here was 15 min, whereas in FIG. 1 the time was 12.5 min. After the data of FIG. 1 was obtained, maintenance was performed on the HPLC, after which the elution time of ^18F-Leu-BF3 on the HPLC was 15 min.

Data set [1] in a line: Metabolic stability in mouse plasma, HPLC analysis. The format is in vitro ADME. Particulars: mouse plasma at 37° C. for 30 and 120 min. Here is the method: To further evaluate the metabolic stability of boramino acid, ^18F-Leu-BF3 was incubated with mouse plasma at 37° C. for 30 and 120 min. After incubation, most of the radioactivity was extracted from the plasma and followed by HPLC analysis.

A short description of data set [2]: In vivo metabolic stability, HPLC analysis of urine and blood samples. Particulars: living animals. The method, then: To further evaluate its in vivo metabolic stability, ^18F-Leu-BF3 was also tested in living animals and followed by HPLC analysis of urine and blood samples.
The test system of a further data set is UM22B xenograft. The experiment in a line: PET imaging and biodistribution in UM22B tumor-bearing mice. The format is in vivo. The method, then:
All imaging studies were performed as follows. PET scans were obtained and image analysis were performed using an Inveon small-animal PET scanner (Malvern, Pa., USA). About 3.7 MBq of ^18F-AA were administered via tail vein injection under isoflurane anesthesia. […] For dynamic acquisition, 60 min dynamic PET scans were acquired, followed by a late-time-point scans at 2 h after tracer injection. With the acute inflammation model, 10-min static PET images were acquired at 1 h and 2 h after injection. The images were reconstructed using a 3-dimensional ordered subset expectation maximum algorithm, and no correction was applied for attenuation or scatter. For each scan, regions of interest (ROIs) were drawn using vendor software (ASI Pro 5.2.4.0; Siemens Medical Solutions) on decay-corrected whole-body coronal images. The radioactivity concentrations (accumulation) within the tumor, heart, muscle, liver, brain, and kidneys were obtained from mean pixel values within the multiple ROI volumes and then converted to megabecquerel per milliliter. These values were then divided by the administered activity to obtain (assuming a tissue density of 1 g/mL) an image-ROI-derived percentage injected dose per gram (% ID/g).

For a further data set, the system named is inflammatory lesion. Kind of data set: PET imaging in the acute inflammation model. The following applies: compared with 18F-FDG (FIGS. 26-28). The format is in vivo, mice. Here is the method:
(§1) All imaging studies were performed as follows. PET scans were obtained and image analysis were performed using an Inveon small-animal PET scanner (Malvern, Pa., USA). About 3.7 MBq of ^18F-AA were administered via tail vein injection under isoflurane anesthesia. For static acquisition, 10-min static PET scans were acquired at 30, 60 and 120 min after injection. For dynamic acquisition, 60 min dynamic PET scans were acquired, followed by a late-time-point scans at 2 h after tracer injection. With the acute inflammation model, 10-min static PET images were acquired at 1 h and 2 h after injection. The images were reconstructed using a 3-dimensional ordered subset expectation maximum algorithm, and no correction was applied for attenuation or scatter. For each scan, regions of interest (ROIs) were drawn using vendor software (ASI Pro 5.2.4.0; Siemens Medical Solutions) on decay-corrected whole-body coronal images. The radioactivity concentrations (accumulation) within the tumor, heart, muscle, liver, brain, and kidneys were obtained from mean pixel values within the multiple ROI volumes and then converted to megabecquerel per milliliter. These values were then divided by the administered activity to obtain (assuming a tissue density of 1 g/mL) an image-ROI-derived percentage injected dose per gram (% ID/g).

For data set [3], the system named is UM22B xenografts. The experiment in a line: PET imaging of 18F-Leu-BF3 co-injected with unlabeled Leu-BF3 (BNCT boron delivery). The format is in vivo, mice. The method, then:
as §1, with “ID/g). […]” for “ID/g).”

Data set [4] relates to UM22B xenografts. The experiment in a line: ICP analysis of boron in tissues after injection. The following applies: 60 min after injection of 10 mg. The format is in vivo, mice. The method, then: Tumor-bearing mice were sacrificed at 60 min after injection of 10 mg of Leu-BF3. UM22B xenografts are dissolve into nitric acid and the resulting solution are analyzed by ICP.

Setting [5] is: UM22B-bearing mice, 120 min after injection.

The values below come from patent US20190055267A1, “ORGANOTRIFLUOROBORATE MIMICS OF AMINO ACIDS AND USES THEREOF” (The United States of America, as represented by the …, priority 2015, published 2019).

Take `CC(C)C[C@H]([NH3+])[B-](F)(F)[18F]` [^18F-Leu-BF3]: in the data set with U87MG human glioma cells, the cell uptake is reported as around 7.5 % AD. Besides, the cell uptake in the data set on HEK293 cells was found to be 10.4 % AD. Further, in the data set with UM22B cells, the “residual radioactivity left in cells” value is recorded as “less than 2%”. Further, in data set [1], the “defluoridation from boramino acid to boronic acid” value was “almost negligible”. The “in vivo metabolic stability” value in data set [2] is reported as “neither participates in protein synthesis nor loses fluoride during in vivo circulation”. The bone uptake entry with UM22B xenograft (PET, tumor-bearing mice) was “undetectable”. In the data set with UM22B xenograft (setting [5]), the “Average Uptake (% ID/g), blood pool” value is 0.47 ± 0.12 % ID/g; the “Average Uptake (% ID/g), hottest voxel cluster of tumor” value is given as 12.46 ± 3.0 % ID/g; the “Average Uptake (% ID/g), kidney” value was 2.32 ± 0.39 % ID/g; the “Average Uptake (% ID/g), liver” value was determined as 0.83 ± 0.16 % ID/g. Besides, in the data set on UM22B xenograft (setting [5]), the “Average Uptake (% ID/g), muscle” value turned out to be 0.09 ± 0.03 % ID/g and the “Average Uptake (% ID/g), whole tumor region of interest” value is reported as 6.72 ± 0.91 % ID/g. Moreover, the “tumor uptake, peak voxel cluster value” in the data set with UM22B xenograft (comparison of 11C-Leu and 18F-Leu-BF3, one particular mouse (FIGS. 24 and 25)) is on record as around 6.5 % ID/g. For the same compound, the “tumor uptake, peak voxel cluster value” with UM22B xenograft (time-activity curves, UM22B tumor-bearing mice (FIGS. 21 and 22)) was around 13 % ID/g. Besides, the “uptake in inflammatory lesion” value in the data set with inflammatory lesion was “almost negligible”. The compound also gave a tumor uptake in the data set with UM22B xenografts [3] (60 min after injection of <1 μg, 200 μg, 1 mg, 5 mg and 25 mg, by PET imaging) of around 10 % ID/g. Further, in the data set on UM22B xenografts [3] (60 min post-injection, based on calculation), the “boron concentration in tumor” value is reported as “up to 30 ppm”. This compound also showed a boron in tumor with UM22B xenografts [4] (ICP analysis) of 34.5 ppm. In addition, the tumor-to-brain ratio with UM22B xenografts [4] (boron by ICP analysis) is 13.5.
